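Compound exposure: 48 hours, 5 concentrations, 96-well plates. GI50: concentration for 50% inhibition of growth. TGI denotes the concentration required for complete inhibition of growth.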
How the values were obtained:
Assay in all cases: NCI-60 cell line screen, 48 h
[1] = system: OVCAR-8 ovarian
[2] = system: SK-OV-3 ovarian
[3] = system: MDA-MB-435
[4] = system: KM12 colon
[5] = system: HS 578T breast
[6] = system: MDA-MB-231 breast
[7] = system: MCF7 breast
[8] = system: SNB-78 CNS
[9] = system: LXFL 529 NSCLC
[10] = system: DMS 114 small cell lung
[11] = system: HCT-116 colon
[12] = system: XF 498 CNS
[13] = system: MDA-N

Row | SMILES | GI50 [1] [µM] | TGI [1] [µM] | GI50 [2] [µM] | TGI [2] [µM] | GI50 [3] [µM] | TGI [3] [µM] | GI50 [4] [µM] | TGI [4] [µM] | GI50 [5] [nM] | TGI [5] [µM] | GI50 [6] [nM] | TGI [6] [µM] | GI50 [7] [nM] | TGI [7] [µM] | TGI [8] [µM] | TGI [9] [µM] | TGI [10] [µM] | TGI [11] [µM] | TGI [12] [µM] | TGI [13] [µM]
1 | Nc1nc(Nc2ccc(OCc3cccc(F)c3)cc2)c2c(n1)[nH]c1ccc(O)cc12 | 3.49 | 13.2 | 17.1 | 31.3 | 3.68 | 14.1 | 3.55 | 11.7 | 2410 | 6.29 | 2710 | 7.33 | 2870 | 11.8 | – | – | – | – | – | –
2 | O=c1c2cc3c(=O)n(CCc4ccccc4CO)c(=O)c3cc2c(=O)n1CCc1ccccc1CO | – | > 100 | – | > 100 | – | – | – | > 100 | – | – | – | – | – | – | > 100 | > 100 | > 100 | > 100 | > 100 | –
3 | c1ccc([P+](Cc2csnn2)(c2ccccc2)c2ccccc2)cc1 | – | > 100 | – | > 100 | – | – | – | > 100 | – | – | – | – | – | – | > 100 | > 100 | > 100 | > 100 | > 100 | –
4 | CCOC(=O)c1csc(NC(=O)CCCC#N)n1 | – | > 100 | – | > 100 | – | > 100 | – | > 100 | – | > 100 | – | > 100 | – | > 100 | – | – | – | – | – | > 100
5 | CCOC(=O)C1=C(C)NC(=O)N([N+](=O)[O-])C1c1ccccc1C(F)(F)F (stereo not given) | – | > 100 | – | > 100 | – | > 100 | – | – | – | > 100 | – | > 100 | – | > 100 | – | – | – | > 100 | – | 79.7
6 | Cc1cc(C)nc(NS(=O)(=O)c2ccc(Nc3c4ccccc4nc4c(C(=O)NCCO)cccc34)cc2)n1 | – | > 100 | – | > 100 | – | 40.7 | – | 22.9 | – | > 100 | – | 27.4 | – | 42.8 | – | – | – | – | – | 69.6
7 | COc1ccc(CN2C(=O)C(=O)N(C)C2=O)c2ccccc12 | – | > 10 | – | > 10 | – | > 10 | – | > 10 | – | > 10 | – | > 10 | – | > 10 | – | – | – | > 10 | – | > 10
8 | O=C(NN1C(=O)CSC1c1ccc(Cl)c(Cl)c1)c1ccncc1 (stereo not given) | – | > 100 | – | > 100 | – | – | – | > 100 | – | – | – | – | – | – | > 100 | > 100 | > 100 | – | > 100 | –
